Data: ChEMBL document CHEMBL1201862, “PubChem BioAssay data set” (2004)
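Compound exposure: 48 hours, 5 concentrations, 96-well plates. GI50 marks 50% less growth.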 Calls of active or inactive are those of the source. No stated cut-off is given here; in the data, active = GI50 up to about 1.1 µM and inactive = higher.

Legend:
Experiment in all cases: inhibition of tumour cell growth, NCI panel, 48 h
IGROV-1 = test system: IGROV-1
UO-31 = test system: UO-31
A549 = test system: A549
HCT-15 = test system: HCT-15
HCC 2998 = test system: HCC 2998
MCF7 = test system: MCF7
HCT-116 = test system: HCT-116
MDA-N = test system: MDA-N
MDA-MB-435 = test system: MDA-MB-435
SF-268 = test system: SF-268
PC-3 = test system: PC-3
DU-145 = test system: DU-145
SW-620 = test system: SW-620
K562 = test system: K562
SK-MEL-2 = test system: SK-MEL-2
SR = test system: SR
EKVX = test system: EKVX
SK-MEL-28 = test system: SK-MEL-28
UACC-62 = test system: UACC-62
RXF 393 = test system: RXF 393
SK-OV-3 = test system: SK-OV-3
SNB-19 = test system: SNB-19
786-0 = test system: 786-0
OVCAR-8 = test system: OVCAR-8
HT-29 = test system: HT-29
NCI-H23 = test system: NCI-H23
HOP-92 = test system: HOP-92
OVCAR-4 = test system: OVCAR-4
LOX IMVI = test system: LOX IMVI
SF-295 = test system: SF-295
MDA-MB-231 = test system: MDA-MB-231
MOLT-4 = test system: MOLT-4
M14 = test system: M14
HOP-62 = test system: HOP-62
SN12C = test system: SN12C
Malme-3M = test system: Malme-3M
SNB-75 = test system: SNB-75
CCRF-CEM = test system: CCRF-CEM
NCI/ADR-RES = test system: NCI/ADR-RES
SK-MEL-5 = test system: SK-MEL-5
U-251 = test system: U-251
CAKI-1 = test system: CAKI-1
BT-549 = test system: BT-549
ACHN = test system: ACHN
OVCAR-3 = test system: OVCAR-3
UACC-257 = test system: UACC-257
OVCAR-5 = test system: OVCAR-5
TK-10 = test system: TK-10
SF-539 = test system: SF-539
RPMI-8226 = test system: RPMI-8226
NCI-H460 = test system: NCI-H460
KM12 = test system: KM12
COLO 205 = test system: COLO 205
NCI-H226 = test system: NCI-H226
NCI-H522 = test system: NCI-H522
T47D = test system: T47D
A498 = test system: A498
Hs-578T = test system: Hs-578T
HL-60 = test system: HL-60

COC(=O)/C=C/COCC1C2CCC(=O)C21 (centres undefined)
GI50 (IGROV-1): > 100 µM (inactive) | GI50 (UO-31): > 100 µM (inactive) | GI50 (A549): > 100 µM (inactive) | GI50 (HCT-15): > 100 µM | GI50 (HCC 2998): > 100 µM (inactive) | GI50 (MCF7): > 100 µM (inactive) | GI50 (HCT-116): > 100 µM (inactive) | GI50 (MDA-N): > 100 µM (inactive) | GI50 (MDA-MB-435): > 100 µM (inactive) | GI50 (SF-268): > 100 µM (inactive) | GI50 (PC-3): > 100 µM (inactive) | GI50 (DU-145): > 100 µM (inactive) | GI50 (SW-620): > 100 µM (inactive) | GI50 (K562): > 100 µM (inactive) | GI50 (SK-MEL-2): > 100 µM (inactive) | GI50 (SR): > 100 µM (inactive) | GI50 (EKVX): > 100 µM (inactive) | GI50 (SK-MEL-28): > 100 µM (inactive) | GI50 (UACC-62): > 100 µM (inactive) | GI50 (RXF 393): > 100 µM (inactive) | GI50 (SK-OV-3): > 100 µM (inactive) | GI50 (SNB-19): > 100 µM (inactive) | GI50 (786-0): > 100 µM (inactive) | GI50 (OVCAR-8): > 100 µM (inactive) | GI50 (HT-29): > 100 µM (inactive) | GI50 (NCI-H23): > 100 µM (inactive) | GI50 (HOP-92): > 100 µM (inactive) | GI50 (OVCAR-4): > 100 µM (inactive) | GI50 (LOX IMVI): > 100 µM (inactive) | GI50 (SF-295): > 100 µM (inactive) | GI50 (MDA-MB-231): > 100 µM (inactive) | GI50 (MOLT-4): > 100 µM (inactive) | GI50 (M14): > 100 µM (inactive) | GI50 (HOP-62): > 100 µM (inactive) | GI50 (SN12C): > 100 µM (inactive) | GI50 (Malme-3M): > 100 µM (inactive) | GI50 (SNB-75): > 100 µM (inactive) | GI50 (CCRF-CEM): > 100 µM (inactive) | GI50 (NCI/ADR-RES): > 100 µM (inactive) | GI50 (SK-MEL-5): > 100 µM (inactive) | GI50 (U-251): > 100 µM (inactive) | GI50 (CAKI-1): 27.4 µM (inactive) | GI50 (BT-549): > 100 µM (inactive) | GI50 (ACHN): > 100 µM (inactive) | GI50 (OVCAR-3): > 100 µM (inactive) | GI50 (UACC-257): > 100 µM (inactive) | GI50 (OVCAR-5): > 100 µM (inactive) | GI50 (TK-10): > 100 µM (inactive) | GI50 (SF-539): > 100 µM (inactive) | GI50 (RPMI-8226): > 100 µM (inactive) | GI50 (NCI-H460): > 100 µM (inactive) | GI50 (KM12): > 100 µM (inactive) | GI50 (COLO 205): > 100 µM (inactive) | GI50 (NCI-H226): > 100 µM (inactive) | GI50 (NCI-H522): > 100 µM (inactive)

N#Cc1[nH]c(=O)n(-c2ccccc2)c1N
GI50 (IGROV-1): > 10 µM (inactive) | GI50 (T47D): > 10 µM (inactive) | GI50 (UO-31): > 10 µM (inactive) | GI50 (A549): > 10 µM (inactive) | GI50 (HCT-15): > 10 µM | GI50 (HCC 2998): > 10 µM (inactive) | GI50 (HCT-116): > 10 µM (inactive) | GI50 (MDA-N): > 10 µM (inactive) | GI50 (MDA-MB-435): > 10 µM (inactive) | GI50 (SF-268): > 10 µM (inactive) | GI50 (PC-3): > 10 µM (inactive) | GI50 (DU-145): > 10 µM (inactive) | GI50 (SW-620): > 10 µM (inactive) | GI50 (K562): > 10 µM (inactive) | GI50 (SK-MEL-2): > 10 µM (inactive) | GI50 (SR): > 10 µM (inactive) | GI50 (EKVX): > 10 µM (inactive) | GI50 (SK-MEL-28): > 10 µM (inactive) | GI50 (UACC-62): > 10 µM (inactive) | GI50 (RXF 393): > 10 µM (inactive) | GI50 (SK-OV-3): > 10 µM (inactive) | GI50 (SNB-19): > 10 µM (inactive) | GI50 (786-0): > 10 µM (inactive) | GI50 (A498): > 10 µM (inactive) | GI50 (OVCAR-8): > 10 µM (inactive) | GI50 (HT-29): > 10 µM (inactive) | GI50 (NCI-H23): > 10 µM (inactive) | GI50 (OVCAR-4): > 10 µM (inactive) | GI50 (LOX IMVI): 0.0995 µM (active) | GI50 (SF-295): 0.279 µM (active) | GI50 (MDA-MB-231): > 10 µM (inactive) | GI50 (MOLT-4): > 10 µM (inactive) | GI50 (M14): > 10 µM (inactive) | GI50 (HOP-62): > 10 µM (inactive) | GI50 (SN12C): > 10 µM (inactive) | GI50 (Malme-3M): > 10 µM (inactive) | GI50 (SNB-75): 6.52 µM (inactive) | GI50 (CCRF-CEM): > 10 µM (inactive) | GI50 (NCI/ADR-RES): > 10 µM (inactive) | GI50 (SK-MEL-5): > 10 µM (inactive) | GI50 (U-251): > 10 µM (inactive) | GI50 (ACHN): > 10 µM (inactive) | GI50 (OVCAR-3): > 10 µM (inactive) | GI50 (UACC-257): > 10 µM (inactive) | GI50 (OVCAR-5): 0.141 µM (active) | GI50 (Hs-578T): > 10 µM (inactive) | GI50 (TK-10): > 10 µM (inactive) | GI50 (SF-539): > 10 µM (inactive) | GI50 (RPMI-8226): > 10 µM (inactive) | GI50 (NCI-H460): > 10 µM (inactive) | GI50 (KM12): > 10 µM (inactive) | GI50 (COLO 205): > 10 µM (inactive) | GI50 (HL-60): > 10 µM (inactive) | GI50 (NCI-H226): > 10 µM (inactive)
